Measurements: PMC12030059, “Mechanistic Advances in the Therapeutic Application of Bixin for Lung Inflammation In Vitro and In Vivo” (Pharmaceuticals, 2025)

Key:
Format in all cases: cell-based
RAW 264.7 macrophages = experiment: MTT cell viability assay; details: 12.5 to 200 μM, 3 h of exposure
Experimental: RAW 264.7 cells were plated (5 × 10^4 cells/well) in a 96-well plate with DMEM and 10% FBS. When cells reached 90% confluence, the 10% (v/v) FBS DMEM was discarded and replaced with the stimuli. […] The metabolism of MTT by the cells was monitored by the formation of insoluble salts, which were then dissolved in isopropyl alcohol. Absorbance was read at 570 nm using a Varioskan LUX (ThermoFisher Scientific, Waltham, MA, USA). […] Cell viability was normalized in all groups by the control (1% (v/v) FBS DMEM), with 10% (v/v) FBS in DMEM used as the positive growth control.

RAW 264.7 cells [1] = experiment: ROS scavenger activity assay (NBT), LPS-induced; details: for ROS production induced by LPS: LPS 10 μg/mL, 12.5–200 μM, effect starting from 100 µM
Experimental: ROS levels were determined using the NBT method. RAW 264.7 cells were incubated for 1 h with 10 μg/mL LPS and different concentrations of bixin or potassium bixinate (0–200 μM) to evaluate their ability to intercept superoxide anions induced by LPS. After incubation, a 10% (w/v) NBT solution was added to each well and incubated for 1 h at 37 °C. Cellular membranes were permeabilized with 2 M KOH, and the resulting formazan was solubilized in DMSO. Optical density (OD) was measured at 630 nm using a Varioskan LUX spectrophotometer (ThermoFisher Scientific, Waltham, MA, USA).

RAW 264.7 cells [2] = experiment: Wound healing migration assay; details: 24 h, mitomycin C pretreated; for cell migration (wound closure), compound alone: 200 μM, no stimulus; for cell migration induced by CSE: CSE 5% plus compound
Experimental: RAW 264.7 cells were seeded in a 24-well plate (4.0 × 10^5 cells/well) and cultured until maximum confluence. Cells were then treated with mitomycin C (5 μg/mL) in FBS-free DMEM for 2 h, followed by washing with PBS. A linear scratch was made with a 200 μL pipette tip in each well. Cells were then stimulated for 24 h with the stimuli diluted in DMEM supplemented with 1% (v/v) FBS. Wound closure was monitored by capturing images at 0 and 24 h. The area of wound closure in each image was measured at five different points using a ruler tool, and an average was calculated for each image and condition. Cell migration was quantified as the percentage of wound closure at 24 h compared to the area at 0 h for each group.

[3] = system: p-p65 NF-κB in RAW 264.7 cells; experiment: Immunocytochemistry for p-p65 nuclear translocation; details: for nuclear p-p65 (green fluorescence colocalized with DAPI), compound alone: 200 μM, no stimulus; for p-p65 NF-κB nuclear translocation in cells stimulated with CSE: 5% CSE then compound 200 μM
Experimental: RAW 264.7 cells were seeded in a 24-well plate (2.5 × 10^5 cells/well) and stimulated as previously described. After reaching 70% confluence, cells were blocked with 5% (w/v) BSA for 1 h, then washed three times in PBS-Tween 20 (0.1% (v/v)). The supernatants were replaced with a solution containing the primary antibody against p-p65 (#3033-rabbit-1:500) (Cell Signaling Technology, Danvers, MA, USA) diluted in PBS-T with 1% (w/v) BSA and incubated overnight. After incubation, cells were incubated for 1 h with a secondary antibody conjugated to Alexa Fluor-488 (1:1000; ThermoFisher Scientific, Waltham, MA, USA). Cells were then washed three times with PBS-T and incubated with DAPI for 5 min. After the final wash, DMEM FluoroBrite was added, and fluorescence was analyzed using the EVOS inverted microscope (ThermoFisher Scientific, Waltham, MA, USA). Images were captured at 20× magnification from at least 10 fields for each experimental condition, and fluorescence intensity was quantified.

HDAC6 = experiment: Western blotting, HDAC6 expression; details: RAW 264.7, increase by CSE 5%
Experimental: The RAW 264.7 macrophage cell lines were cultured in DMEM supplemented with 10% (v/v) FBS, pH 7.2, at 37 °C in a humidified atmosphere with 5% CO2. RAW 264.7 cells were plated in a 24-well plate (3.5 × 10^5 cells/well) in DMEM with 1% (v/v) FBS and left overnight to adhere. […] After incubation, the medium was removed, and a 100 μM solution of bixin or potassium bixinate (diluted in DMEM; bixin was first prepared as a stock solution in DMSO) was added for an additional 1 h.
Cells were lysed in RIPA buffer containing […]™ Protease Inhibitor and 1 mM sodium orthovanadate. Samples were then analyzed using the bicinchoninic acid (BCA) method (BCA Protein Assay Kit). […] For protein quantification, 10 μL of the sample was mixed with 100 μL of the working solution, and the same procedure was performed for each point on the standard curve in a 96-well plate. […] Absorbance was read at 565 nm using a Varioskan LUX spectrophotometer (ThermoFisher Scientific, Waltham, MA, USA).
(§1) Cell lysates (10–20 μg of protein) were separated by SDS-PAGE (sodium dodecyl sulfate polyacrylamide gel for electrophoresis) (8 or 12% polyacrylamide) and transferred (25 V, 1.0 A, 30 min—Trans-Blot Turbo Transfer System, Bio-Rad—São Paulo, Brazil) to a PVDF membrane. […] Densitometry was quantified using ImageJ software v. […] Results are expressed as densitometric values for each protein normalized to β-actin.

ICAM-1 = experiment: Western blotting, ICAM-1 expression; details: RAW 264.7, 200 μM following CSE 5% exposure
Experimental: (§2) The RAW 264.7 macrophage cell lines were cultured in DMEM supplemented with 10% (v/v) FBS, pH 7.2, at 37 °C in a humidified atmosphere with 5% CO2. RAW 264.7 cells were plated in a 24-well plate (3.5 × 10^5 cells/well) in DMEM with 1% (v/v) FBS and left overnight to adhere. […]
(§3) Cells were lysed in RIPA buffer containing […]™ Protease Inhibitor and 1 mM sodium orthovanadate. Samples were then analyzed using the bicinchoninic acid (BCA) method (BCA Protein Assay Kit). Standard curves with known albumin concentrations (0–2 mg/mL) were used. The working solution was prepared according to the manufacturer’s instructions. For protein quantification, 10 μL of the sample was mixed with 100 μL of the working solution, and the same procedure was performed for each point on the standard curve in a 96-well plate. […] Absorbance was read at 565 nm using a Varioskan LUX spectrophotometer (ThermoFisher Scientific, Waltham, MA, USA).
as §1

NOS2 = experiment: Western blotting, NOS2 expression; details: RAW 264.7, 200 μM, CSE 5%
Experimental: as §2, §3, §1

Compound	cell viability (RAW 264.7 macrophages)	ROS production induced by LPS (RAW 264.7 cells [1])	potency to intercept ROS formation relative to bixin (RAW 264.7 cells [1]; in vitro, KBx versus bixin)	cell migration (wound closure), compound alone (RAW 264.7 cells [2])	cell migration induced by CSE (RAW 264.7 cells [2])	nuclear p-p65 (green fluorescence colocalized with DAPI), compound alone [3]	p-p65 NF-κB nuclear translocation in cells stimulated with CSE [3]	HDAC6 expression (HDAC6/β-actin) (HDAC6)	ICAM-1 expression (ICAM-1/β-actin) (ICAM-1)	NOS2 expression (NOS2/β-actin) (NOS2)
potassium bixinate [KBx]	did not affect cell viability	dose-dependent reduction in ROS production	three-fold more potency	no migration occurred	completely inhibited	do not display a significant increase in green fluorescence intensity	prevent p-p65 NF-κB nuclear translocation	effective in reducing it	reduced ICAM-1 expression	reduced it
COC(=O)/C=C/C(C)=C\C=C\C(C)=C\C=C\C=C(C)\C=C\C=C(C)\C=C\C(=O)O [HBx, (2E,4E,6E,8E,10E,12E,14E,16Z,18E)-20-methoxy-4,8,13,17-tetramethyl-20-oxoicosa-2,4,6,8,10,12,14,16,18-nonaenoic acid]	did not affect cell viability	dose-dependent reduction in ROS production		no migration occurred	completely inhibited	do not display a significant increase in green fluorescence intensity	prevent p-p65 NF-κB nuclear translocation	effective in reducing it	reduced ICAM-1 expression	reduced it
